In US8722123B2, “Antimicrobial composition and use as food treatment” (priority 2008, dated 2014):
Marks after values point to notes of the source that are not given here.

What was measured:
alfalfa seed = assay: Seed germination percentage; settings: treated for 1 hour at 21° C.
Procedure: To determine the germination percentage, treated and control seeds (5 gram per replicate) were placed on the surface of a plastic tray. A second tray containing 200 ml of sterile deionized water was placed with tray with seeds and water dropped into lower tray to maintain uniform moisture. The seeds were incubated at approximately 22° C. for 72 h.

[1] = system: S. typhimurium DT 104 on alfalfa seeds; assay: S. typhimurium DT 104 inactivation on alfalfa seeds; format: cell-based, Salmonella typhimurium DT104; parameters: key to S. typhimurium DT 104 counts on seeds: +: Below the minimum detection level by direct plating (<1.7 log CFU/ml), but positive by enrichment culture.; −: Negative by direct plating and enrichment culture; settings: for S. typhimurium DT 104 counts on seeds: alfalfa seeds inoculated with 10^8 CFU/g

## [Ca+2].[O-]Cl.[O-]Cl [20,000 ppm, Ca(OCl)2, pH 11.4, calcium hypochlorite]
Alfalfa seed
  germination rate of alfalfa seed: 47.3%
[1]; dried 4 h at 21° C., 0 min of exposure
  S. typhimurium DT 104 counts on seeds: +^b (Below the minimum detection level by direct plating (<1.7 log CFU/ml), but positive by enrichment culture.)
[1]; dried 4 h at 21° C., 1 min of exposure
  S. typhimurium DT 104 counts on seeds: −^c
[1]; dried 4 h at 21° C., 2 min of exposure
  S. typhimurium DT 104 counts on seeds: −
[1]; dried 4 h at 21° C., 5 min of exposure
  S. typhimurium DT 104 counts on seeds: −
[1]; dried 4 h at 21° C., 10 min of exposure
  S. typhimurium DT 104 counts on seeds: −
[1]; dried 4 h at 21° C., 20 min of exposure
  S. typhimurium DT 104 counts on seeds: −
[1]; dried 4 h at 21° C., 30 min of exposure
  S. typhimurium DT 104 counts on seeds: −
[1]; dried 4 h at 21° C., 60 min of exposure
  S. typhimurium DT 104 counts on seeds: −
[1]; dried 24 h at 21° C., 0 min of exposure
  S. typhimurium DT 104 counts on seeds: + (Below the minimum detection level by direct plating (<1.7 log CFU/ml), but positive by enrichment culture.)
[1]; dried 24 h at 21° C., 1 min of exposure
  S. typhimurium DT 104 counts on seeds: + (Below the minimum detection level by direct plating (<1.7 log CFU/ml), but positive by enrichment culture.)
[1]; dried 24 h at 21° C., 2 min of exposure
  S. typhimurium DT 104 counts on seeds: −
[1]; dried 24 h at 21° C., 5 min of exposure
  S. typhimurium DT 104 counts on seeds: −
[1]; dried 24 h at 21° C., 10 min of exposure
  S. typhimurium DT 104 counts on seeds: −
[1]; dried 24 h at 21° C., 20 min of exposure
  S. typhimurium DT 104 counts on seeds: −
[1]; dried 24 h at 21° C., 30 min of exposure
  S. typhimurium DT 104 counts on seeds: −
[1]; dried 24 h at 21° C., 60 min of exposure
  S. typhimurium DT 104 counts on seeds: −
[1]; dried 48 h at 21° C., 0 min of exposure
  S. typhimurium DT 104 counts on seeds: + (Below the minimum detection level by direct plating (<1.7 log CFU/ml), but positive by enrichment culture.)
[1]; dried 48 h at 21° C., 1 min of exposure
  S. typhimurium DT 104 counts on seeds: + (Below the minimum detection level by direct plating (<1.7 log CFU/ml), but positive by enrichment culture.)
[1]; dried 48 h at 21° C., 2 min of exposure
  S. typhimurium DT 104 counts on seeds: −
[1]; dried 48 h at 21° C., 5 min of exposure
  S. typhimurium DT 104 counts on seeds: −
[1]; dried 48 h at 21° C., 10 min of exposure
  S. typhimurium DT 104 counts on seeds: + (Below the minimum detection level by direct plating (<1.7 log CFU/ml), but positive by enrichment culture.)
[1]; dried 48 h at 21° C., 20 min of exposure
  S. typhimurium DT 104 counts on seeds: −
[1]; dried 48 h at 21° C., 30 min of exposure
  S. typhimurium DT 104 counts on seeds: −
[1]; dried 48 h at 21° C., 60 min of exposure
  S. typhimurium DT 104 counts on seeds: −
[1]; dried 72 h at 21° C., 0 min of exposure
  S. typhimurium DT 104 counts on seeds: −
[1]; dried 72 h at 21° C., 1 min of exposure
  S. typhimurium DT 104 counts on seeds: −
[1]; dried 72 h at 21° C., 2 min of exposure
  S. typhimurium DT 104 counts on seeds: −
[1]; dried 72 h at 21° C., 5 min of exposure
  S. typhimurium DT 104 counts on seeds: −
[1]; dried 72 h at 21° C., 10 min of exposure
  S. typhimurium DT 104 counts on seeds: −
[1]; dried 72 h at 21° C., 20 min of exposure
  S. typhimurium DT 104 counts on seeds: + (Below the minimum detection level by direct plating (<1.7 log CFU/ml), but positive by enrichment culture.)
[1]; dried 72 h at 21° C., 30 min of exposure
  S. typhimurium DT 104 counts on seeds: + (Below the minimum detection level by direct plating (<1.7 log CFU/ml), but positive by enrichment culture.)
[1]; dried 72 h at 21° C., 60 min of exposure
  S. typhimurium DT 104 counts on seeds: −
[1]; seeds dried 24 h, 48 h, or 72 h, 5 min
  Salmonella level after treatment: undetectable by direct plating, but still detectable by enrichment culture
